Measured values published in patent US9642829B2, “Antifungal compound and uses thereof” (The University of Hong Kong, priority 2012, dated 2017).

How the values were obtained:
[1] = system: C. krusei; assay: Antifungal susceptibility (MIC/MFC), CLSI criteria; format: cell-based, Candida krusei; settings: C. krusei ATCC; 0.5 McFarland inoculum (10^6 cells/ml)
Method: (§1) Antifungal activity of the small molecules was evaluated using USA standards, Clinical and Laboratory Standards Institute (CLSI) criteria. In brief, inocula from 24 h Candida cultures on Sabourauds's dextore agar were standardized to a turbidity equivalent of 0.5 McFarland standards at 520 nm with a spectrophotometer. The suspensions were further diluted in Rosewell Park Memorial Institute (RPMI) 1640 medium (Life technologies, New York, USA) to yield an inoculum concentration of approximately 0.5 1×10^3 to 2.5 1×10^3 cells/ml. Minimum inhibitory concentration (MIC) and minimum fungicidal concentration (MFC) assay was performed in 96-well plates (Iwaki, Tokyo, Japan) and each of the Candida species was exposed to a double dilution of SM21. Amphotericin B was used as a positive control. All the experiments were preformed three occasions with duplicates for all isolates. The plates were incubated at 35° C. for 48 h to evaluate MIC. In the case of Cryotococcus neoformans, reading were taken after 72 h. Aforementioned assay was performed for C. albicans ATCC 90028, C. albicans SC5314 and 10 C. albicans clinical isolates. Moreover, MIC/MFC determination was carried out for other fungal species such as C. glabrata, C. krusei, C. tropicalis, C. parapsilosis, C. neoformans, Aspergillus fumigates and Penicillium marneffei. […]

[2] = system: C. albicans SC5314 and C. albicans ATCC 90028; assay: Antifungal activity compared with caspofungin and amphotericin B (FIG. 2, CLSI M44-A disc diffusion); format: cell-based, Candida albicans
Text: (§2) Oral Biosciences laboratory has one of the largest collections of fungal isolates, particular that of Candida species in the world. In our previous studies, we have found multidrug resistant clinical isolates of Candida species against existing antifungals. In particular, some of these strains are resistant to best antifungal agents to date such as caspofungin, amphotericin B and fluconazole. Therefore, we performed antifungal susceptibility testing for SM21 against these drug resistant Candida isolates suing CLSI M27A brothmicrodultion assay and CLSI M44-A disc diffusion assay.

[3] = system: C. glabrata drug resistant isolates; assay: Susceptibility of multidrug resistant clinical isolates, CLSI M27A broth microdilution; format: cell-based, Candida glabrata
Text: as §2

[4] = system: Penicillium marneffei; assay: Antifungal susceptibility (MIC/MFC), CLSI criteria; format: cell-based; settings: 0.5 McFarland inoculum (10^6 cells/ml)
Method: (§3) Antifungal activity of the small molecules was evaluated using USA standards, Clinical and Laboratory Standards Institute (CLSI) criteria. In brief, inocula from 24 h Candida cultures on Sabourauds's dextore agar were standardized to a turbidity equivalent of 0.5 McFarland standards at 520 nm with a spectrophotometer. The suspensions were further diluted in Rosewell Park Memorial Institute (RPMI) 1640 medium (Life technologies, New York, USA) to yield an inoculum concentration of approximately 0.5 1×10^3 to 2.5 1×10^3 cells/ml. Minimum inhibitory concentration (MIC) and minimum fungicidal concentration (MFC) assay was performed in 96-well plates (Iwaki, Tokyo, Japan) and each of the Candida species was exposed to a double dilution of SM21. Amphotericin B was used as a positive control. All the experiments were preformed three occasions with duplicates for all isolates. The plates were incubated at 35° C. for 48 h to evaluate MIC. In the case of Cryotococcus neoformans, reading were taken after 72 h. Aforementioned assay was performed for C. albicans ATCC 90028, C. albicans SC5314 and 10 C. albicans clinical isolates. Moreover, MIC/MFC determination was carried out for other fungal species such as C. glabrata, C. krusei, C. tropicalis, C. parapsilosis, C. neoformans, Aspergillus fumigates and Penicillium marneffei. […] Next using dose-dependent assay we tested that MIC/MFC of SM21 from 10^3 cells/ml to 10^7 cells/ml of C. albicans (Table 2). Each of the foregoing experiment was repeated on three different occasions.

[5] = system: Aspergillus fumigatus; assay: Antifungal susceptibility (MIC/MFC), CLSI criteria; format: cell-based; settings: 0.5 McFarland inoculum (10^6 cells/ml)
Method: as §3

[6] = system: human oral keratinocytes; assay: Cytotoxicity assay (MTT reduction, FIG. 6); format: cell-based; settings: primary human oral keratinocytes; at effective concentration
Method: (§4) FIG. 6. MTT reduction assay of primary culture human monocytes, gingival fibroblasts and oral keratinocytes showing safety of SM21.
(§5) Next, we used mouse model and treated the animals with 100 times of the effective dose (2 μg) i.e. 200 μg of SM21 twice a day for five days.

[7] = system: human gingival fibroblasts; assay: Cytotoxicity assay (MTT reduction, FIG. 6); format: cell-based; settings: primary human gingival fibroblasts; at effective concentration
Method: as §4, §5

[8] = system: human monocytes; assay: Cytotoxicity assay (MTT reduction, FIG. 6); format: cell-based; settings: primary human monocytes; at effective concentration
Method: as §4, §5

[9] = system: C. albicans biofilms; assay: Mono species Candida biofilm MIC, XTT assay; format: cell-based, Candida albicans
Method: For instance, we have previously shown the resistance of Candida biofilms against amphotericin and caspofungin. Therefore, next using standard biofilm assays we have established in our laboratory, we examined the effect of SM21 against Candida biofilms. In brief, Candida cells were grown in SDA medium at 37° C. for 18 h. Then a loopful of the yeast was inoculated into the yeast nitrogen base (YNB; Difco) medium supplemented with 50 mM glucose in a rotary shaker at 75 rpm. After overnight broth culture, the yeasts were harvested in the late exponential growth phase and washed twice with 20 ml of phosphate buffer saline (PBS; pH 7.2. 0.1 M) prior to use in the biofilm studies. Candida biofilms were developed according to a previously published protocol. In brief, washed yeast cells were resuspended in YNB supplemented with 100 mM glucose and adjusted to an optical density of 0.38 at 520 nm (1×10^7 cells/ml). The standard cell suspension was used immediately to develop biofilms on commercially available presterilized, polystyrene, 96-well plate (IWAKI, Tokyo, Japan). At first, 100 μl of standardized cell suspension (1×10^7 cells/ml) was pipetted into each well of a microtiter plate and incubated for 1.5 h at 37° C. in a shaker at 75 rpm to permit yeast adherence to the well surface (adherence phase). For controls, a well of each microtiter plate was handled in an identical fashion except that no Candida suspension was added. Following the adhesion phase, the cell suspensions were aspirated, and each well washed with 100 μl of PBS to remove loosely adherent cells. 200 μl of YNB with 100 mM glucose were then pipetted into each of the washed wells and the plates incubated at 37° C. in a shaker at 75 rpm for 24 or 48 h. After biofilm growth phase microscopic examination of the cultures were performed to rule out contamination. Then, the suspending medium was aspirated and biofilms were washed with 100 μl PBS to remove the nonadherent cells. The stock solutions were diluted twofold with RPMI 1640 supplemented with 2% glucose to obtain SM21 concentration from 100 to 0.2 μg/ml drug concentrations. In parallel, other antifungal agents such as caspofungin (100 to 0.1 μg/ml) and amphotericin B (240 μg/ml to 0.225 μg/ml) was also prepared as describe above. A total of 100 μl of drug solution was added to the microtiter plate containing Candida biofilms. Biofilms were then incubated at 37° C. for 24 h with the antifungals and afterwards metabolic activity of fungal cells was determined by the XTT [2,3-bis(2-methoxy-4-nitro-5-sulfophenyl)-2H-tetrazolium-5-carboxanilide sodium salt] assay (17, 28). Candida biofilm MIC90 was defined as the lowest drug concentration with 90% reduction in opacity compared with the drug free control. Each experiment was repeated three times with four replicates.

[10] = system: Lactobacillus acidophilus; assay: Antibacterial activity (FIG. 3); format: cell-based; settings: dose of 2 μg
Method: (§6) FIGS. 3A-C. Antibacterial activity of SM21 at dose of 2 μg was examined for three bacterial species together with other antifungal agents caspofungin, amphotericin B and chlorhexidine. (A) Lactobacillus acidophilus (B) Streptococcus mutans and (C) Escherichia coli were used for the experiments.
as §2

[11] = system: Streptococcus mutans; assay: Antibacterial activity (FIG. 3); format: cell-based; settings: dose of 2 μg
Method: as §6, §2

[12] = system: Escherichia coli; assay: Antibacterial activity (FIG. 3); format: cell-based; settings: dose of 2 μg
Method: as §6, §2

[13] = system: C. parapsilosis; assay: Antifungal susceptibility (MIC/MFC), CLSI criteria; format: cell-based, Candida parapsilosis; settings: C. parapsilosis ATCC; 0.5 McFarland inoculum (10^6 cells/ml)
Method: as §1

With `CN(C)c1ccc(/C=C/c2cc(C(C)(C)C)[o+]c(C(C)(C)C)c2)cc1.[O-][Cl+3]([O-])([O-])[O-]` [SM21] the “Susceptibility (MIC90)” value [1] was 0.4 µg/mL, the “Susceptibility of the strain to the agent” value ([2]; C. albicans ATCC 90028, CLSI quality control strain (FIG. 2B)) was “susceptible” and the “Susceptibility of the strain to the agent” value ([2]; C. albicans SC5314 (FIG. 2A)) was “susceptible”. For the same compound, the MIC ([3]; C. glabrata 1570, resistant to Itraconazole) was 0.5 µg/mL, the MIC ([3]; C. glabrata T1585, resistant to Fluconazole, Itraconazole, ketoconazole, Voriconazole) was 1 µg/mL and the MIC ([3]; C. glabrata T1672, resistant to Itraconazole, Ketaconazole) was 0.5 µg/mL. The “Susceptibility (MIC90)” value [4] was 0.2 µg/mL, the “Susceptibility (MIC90)” value [5] was 6.25 µg/mL and the Cytotoxicity [6] was “no cytotoxicity”. The Cytotoxicity [7] was “no cytotoxicity”, the Cytotoxicity [8] was “no cytotoxicity” and the “Biofilm MIC90” value ([9]; 24 h C. albicans biofilms, 24 h drug exposure, XTT) was 3.2 µg/mL. For the same compound, the “Minimum inhibitory concentration of 48 h Candida biofilms” value ([9]; 48 h C. albicans biofilms) was 25 µg/mL, the Antibacterial activity [10] was “not anti-bacterial” and the Antibacterial activity [11] was “not anti-bacterial”. The Antibacterial activity [12] was “not anti-bacterial” and the “Susceptibility (MIC90)” value [13] was 1.6 µg/mL.
